From patent US20130116282A1, “BUCKWHEAT EXTRACT ENRICHED IN D-FAGOMINE” (BIOGLANE, S.L.N.E., priority 2010, published 2013)

Legend:
[1] = test system: Escherichia coli; test: Adhesion of Escherichia coli to mucus (pig intestinal mucosa); type: cell-based; conditions: 10 mg/L D-fagomine
Description: Adhesion to Mucus. Protocol
The strains of Escherichia coli used were obtained from the Bacterial Strain Collection of the Faculty of Veterinary Science at the Universitat Autònoma de Barcelona. Overnight, cultures of the bacterial strain were inoculated into flasks containing Luria medium (Liofilchem, Roseto degli Abruzzi, Italy) (3 mL) to facilitate the production of fimbriae. The strains were incubated at 37° C. for 24 h. Then, colonies were grown on Luria medium Agar plates and after 24 h of incubation, several dilutions were prepared in PBS (phosphate buffered saline, Sigma Aldrich, St Louis, Mo., USA) for each strain, down to a concentration of 1×10^7 CFU mL^−1.
The mucosa was obtained from intestinal segments of pigs, just after they were killed at a local slaughterhouse, and kept frozen until use. The mucosa preparation (1 mL) was defrosted, centrifuged and mixed with PBS (99 mL). Prior to each test, the concentration of mucine in the suspension was calculated by the Bradford method. Multiwell plates (Nunc®, Roskilde, Denmark) were treated with the mucosa suspension (2.5 mL) overnight at 4° C. […] Finally, the colony forming units from both the supernatant and mucosa were counted under an optical microscope after cultivating both fractions overnight.

[2] = test system: lactase; conditions: Kato et al. 1997; cited from earlier work
[3] = test system: Streptozotocin-diabetic mice; conditions: Nojima et al. 1998; cited from earlier work
[4] = test system: Sprague-Dawley rats; test: Post-prandial blood glucose test after sucrose administration; type: in vivo, rat; conditions: sucrose 2 g/kg, 1.0 mg/kg D-fagomine
Description: The effect on postprandial blood glucose of both D-fagomine enriched extract from buckwheat and D-fagomine obtained chemoenzimatically following the procedure described in WO2008025826A1 was evaluated. Adult male Sprague-Dawley rats of 200-220 g body weight (Janvier, Le Genest-St-Isle, France) were housed in cages (n=2/cage) under controlled conditions of stable humidity (40-77%), and temperature (23° C.) with a 12-hour light/dark cycle. The rats were fed a standard diet (Panlab A04, Panlab, Barcelona, Spain) and given water ad libitum. To minimize circadian rhythm effects, rat manipulations were carried out in the morning. Handling and sacrificing of the animals were in full accordance with the European Union guidelines for the care and management of laboratory animals and the pertinent permission was obtained from the CSIC Subcommittee of Bioethical Issues. The authors further attest that all efforts were made to minimize the number of animals used and their suffering. The glucose test was performed after a 12 h food deprivation period. A solution of sucrose (2 g/kg body weight) together with the appropriate amount of the compound being tested was administered to the rats. […] Blood glucose concentration was measured by the enzyme electrode method using Elite blood glucose test strips and a blood glucose meter Ascensia ELITE XL both from Bayer Consumer Care AG (Basel, Switzerland). […]

[5] = test system: alpha-glycosidase; conditions: Kato et al. 1997; cited from earlier work

SMILES: OC[C@H]1NCC[C@@H](O)[C@@H]1O [D-fagomine WO2008025826A1, (2R,3R,4R)-2-(hydroxymethyl)piperidine-3,4-diol]
- Agglutination of the microorganisms [1]: agglutinated
- Bacterial adhesion to the mucus [1]: not detected
- lactase inhibition [2]: weak inhibitor
- antihyperglycemic effect [3]: antihyperglycemic effect
- Increase in plasma glucose after sucrose administration [4]: lowered
- alpha-glycosidase inhibition [5]: weak inhibitor
